Measurements published in EPA's ToxValDB 9.5 (doi:10.2903/j.efsa.2007.105r).
Converted amounts (≈) assume the structure as drawn.

How the values were obtained:
Anas platyrhynchos = conditions: reproductive
Apis mellifera = conditions: acute; duration: 48 hours; dermal; mortality
Bibionidae = conditions: chronic/long-term; duration: 28 days
Colinus virginianus = conditions: acute, mortality
Daphnia magna = conditions: chronic/long-term; duration: 21 days; reproduction
Aphidius rhopalosiphi = experiment: LR50; higher = less toxic; conditions: acute; duration: 48 hours; mortality

SMILES: Cc1cc(C)c(C2=C(OC(=O)CC(C)(C)C)C3(CCCC3)OC2=O)c(C)c1 [Spiromesifen]
- NOEC (Anas platyrhynchos): 229 mg/kg
- LC50 (Anas platyrhynchos; mortality): > 5000 mg/kg
- LD50 (Apis mellifera): > 200 µg/piece
- NOEC (Bibionidae): 0.032 mg/L
- LC50 (Colinus virginianus): > 5000 mg/kg
- LD50 (Colinus virginianus): > 1160 mg/kg
- LD50 (Colinus virginianus; oral, diet): > 2000 mg/kg
- NOEC (Daphnia magna): 0.00025 mg/L
- NOAEL (Mus musculus; chronic, duration: 18 months): 3 mg/kg-day
- NOAEL (Mus musculus; subchronic, duration: 90 days, oral, clinical chemistry): 3 mg/kg-day
- LC50 (Oncorhynchus mykiss; acute, duration: 96 hours, mortality): 0.016 µg/mL (≈ 0.0432 µM)
- NOEC (Oncorhynchus mykiss; chronic/long-term, duration: 97 days, time to swim up): 0.00473 mg/L
- NOAEL (Rattus norvegicus; acute): 200 mg/kg-day
- LD50 (Rattus norvegicus; acute, oral, mortality): > 2500 mg/kg
- NOEC (Rattus norvegicus; chronic): 30 mg/kg-day
- LC50 (Tagia sp.; acute, duration: 14 days, mortality): > 1000 mg/kg
- NOEC (Tagia sp.; chronic/long-term, duration: 56 days, reproduction): 4.32 mg/kg
- LR50 (Aphidius rhopalosiphi): 40.6 mL/ha
